From patent publication US20220152093A1, “OPTIMIZED NUTRIENT SALT COMPOSITION” (priority 2018, published 2022)

Test system: tender mangoes
Experiment: Preservation of tender mangoes in salt solution, 45 days at room temperature
Conditions: common salt solution 2.5%, optimized nutrient salt solution 5% (matching saltiness), 25 to 35 degree centigrade
Description: Two sets of 1000 gm tender mangoes were put in two separate sterile glass bottles. First bottle was filled with common salt solution up to the neck of the bottle and the second bottle was filled with optimized nutrient salt solution prepared by a process as given in example 1 of matching saltiness. Saltiness of optimized nutrient salt is only half of common salt. While the common salt solution used was 2.5% and the optimized nutrient salt solution was 5%. Bottle closed with cap and kept for seasoning for 45 days in room temperature around 25 to 35 degree centigrade.

SMILES: [Cl-].[Na+] [common salt]
- fungal growth at the surface of the solution: thin layer of fungal growth
